Paper PMC8728441, “Biosynthesis of the redox cofactor mycofactocin is controlled by the transcriptional regulator MftR and induced by long-chain acyl-CoA species” (The Journal of Biological Chemistry, 2021)

What was measured:
MftR–Omft complex = test: Competitive EMSA screen for effectors of MftR; format: binding, Mycobacterium smegmatis mc^2155; details: 6-FAM Omft 0.5 μM, MftR 5 μM, effectors 100 μM
Procedure: Next, we assessed which metabolites activate MftR and thus could induce MFT production. To do so, we carried out competitive EMSAs where FAM-labeled Omft and MftR were incubated in the presence of potential effectors. We initially chose our effectors based on cholesterol catabolism, a process that putatively includes MFT biosynthetic genes ([38]). […] Knowing that TFRs have a propensity to be activated by fatty acyl-CoAs ([20]), we expanded our effector screening to include short-chain, medium-chain, and long-chain acyl-CoAs.
Figure 4 Effectors of MftR.A, an EMSA used to screen effectors of MftR. The 6-FAM–labeled Omft region (0.5 μM) was incubated with the MftR (5 μM) in the absence or the presence of effectors (100 μM). Protein–DNA complexes were separated by electrophoresis on 5% polyacrylamide gel. […] B, a representative isothermal titration calorimetry thermogram for the binding of the oleoyl-CoA to MftR regulator (blue) and the control of oleoyl-CoA into buffer (red). Each peak corresponds to the injection of 2.22 μl of 250 μM oleoyl-CoA into the cell containing 16 μM MftR or buffer. The integrated thermogram (blue dots) was fitted to a single-site binding model (black line) to determine the Kd. […] C, a bar graph depicting the ITC measured Kds for various acyl-CoAs. Bars represent the mean of three independent experiments, and the error bars represent the standard deviation of the experiments. 6-FAM, 6-carboxyfluorescein; ITC, isothermal titration calorimetry; Omft, mft operator.
His-tagged MftR was used to assess the protein binding to Pmft–MftA promoter fragment. DNA was mixed with increasing concentrations of the MftR protein in the reaction buffer (50 mM Hepes, 50 mM NaCl 0.1 mM EDTA, and pH 7.5) and incubated at room temperature for 10 min. The reactions were resolved by electrophoresis on a 5% (v/v) nondenaturing polyacrylamide gel in 1× Tris/borate/EDTA buffer at 200 V for 20 min on ice. Prior to the analysis, the gel was prerun for 30 min at 150 V on ice. Results were visualized by GelRed and recorded using Azure Biosystems 600 imaging system.

[1] = tested on: mft BGC (MftA–mCherry reporter); test: Spot test growth analysis with Pmft–pCherry reporter; format: cell-based, Mycobacterium smegmatis mc^2155; details: 7H9 with 0.05% w/v each glucose and OA, compared with glucose alone
Procedure: To directly establish that oleoyl-CoA induces MFT biosynthesis in vivo, a colony dilution experiment was carried out using Msmeg transformed with Pmft–pCherry grown on Middlebrook 7H9 (7H9) supplemented with glucose or oleic acid (OA). We used OA in the growth media since it is well known that bacterial fatty acid shuttle systems convert free fatty acids to the corresponding acyl-CoAs and since Msmeg encodes for at least two known fatty acid transporters ([48], [49]). […] To assess when this occurs in real time, growth curve assays with Msmeg/Pmft–pCherry were carried out. […] We observed the same effect when OA was added to the media after 12 h of incubation. Next, we determined if MFT induction is dependent on the concentration of OA. We carried out a titration series of growth curves where 7H9 media were supplemented with 0.05% w/v glucose and 0.01, 0.02, 0.05, or 0.1% w/v OA. […]
Figure 6 Induction of MFT biosynthesis by oleoyl-CoA in vivo. […] Fluorescence images were obtained simultaneously from two different petri dishes using 585 nm excitation and 635 nm emission wavelengths. […]
A single time point growth assay was standardized for the growth of Msmeg on 7H9 agar plates with various carbon sources supplemented. […] The absorbance was measured and converted to colony-forming units (CFUs) using the standard 3.13 × 10^7 CFU·ml^−1·absorbance^−1 conversion factor ([58]). […]

[2] = tested on: mft BGC (MftA–mCherry reporter); test: Growth curve assays with Msmeg/Pmft–pCherry; format: cell-based, Mycobacterium smegmatis mc^2155
Procedure: To directly establish that oleoyl-CoA induces MFT biosynthesis in vivo, a colony dilution experiment was carried out using Msmeg transformed with Pmft–pCherry grown on Middlebrook 7H9 (7H9) supplemented with glucose or oleic acid (OA). We used OA in the growth media since it is well known that bacterial fatty acid shuttle systems convert free fatty acids to the corresponding acyl-CoAs and since Msmeg encodes for at least two known fatty acid transporters ([48], [49]). […] To assess when this occurs in real time, growth curve assays with Msmeg/Pmft–pCherry were carried out. […] We observed the same effect when OA was added to the media after 12 h of incubation. Next, we determined if MFT induction is dependent on the concentration of OA. We carried out a titration series of growth curves where 7H9 media were supplemented with 0.05% w/v glucose and 0.01, 0.02, 0.05, or 0.1% w/v OA. […] However, in general, increasing concentrations of OA had little effect on the overall production of the MftA–mCherry fusion. The lack of immediate production of MftA–mCherry after the addition of OA and the concentration independence is perplexing. […] Rather, we expect that a subtler and unknown mechanism is at play.
Figure 7 Growth curve assays with Msmeg/Pmft–pCherry.A, absorbance at 600 nm measurements for the 7H9 media supplemented with 0.1% tyloxapol, 50 μg/ml hygromycin, and glucose and/or oleic acid (OA) as carbon sources. Concentrations of carbon sources were glucose only (0.1% w/v), OA only (0.1% w/v), and glucose/OA (0.05% w/v each) where OA was added after 12 h (blue arrow). B, corresponding fluorescence intensities (excitation of 585 nm/emission of 612 nm) of Msmeg/Pmft–pCherry cultures described in A. C, absorbance at 600 nm measurements for dose-dependent addition of OA to the 7H9 media supplemented with 0.05% w/v glucose and 0.01, 0.02, 0.05, 0.1% w/v of OA. D, corresponding fluorescence intensities of Msmeg/Pmft–pCherry cultures described in C. 7H9, Middlebrook 7H9; Msmeg, Mycobacterium smegmatis mc^2155; Pmft, mft promoter.
For fluorescence-based assays, a single Msmeg colony harboring Pmft–pCherry was used to inoculate 25 ml of 7H9 media supplemented with 0.1% tyloxapol, 0.1% w/v glycerol, 50 μg/ml hygromycin, and 0.1% w/v glucose. For cultures containing OA only, 0.1% w/v OA was used. […] The overnight culture was used to inoculate 7H9 media to an absorbance of 0.05 at 600 nm (1 cm pathlength) with carbon sources supplemented as described previously. […] Aliquots were taken every 2 h, and absorbance at 600 nm values were measured. To track the expression of the Pmft–pCherry fusion, fluorescence measurements were taken on a Cary Fluorimeter every 2 h using an excitation of 585 nm and an emission of 612 nm.

MftR (WT) = MftR (WT) (Mycolicibacterium smegmatis, UniProt A0QSB5); test: ITC binding of acyl-CoAs to MftR; set-up: species or system Mycobacterium smegmatis mc^2155
Procedure: ITC was performed using TA Nano ITC. MftR was loaded in the sample cell at the concentration of 16 and 250 μM acyl-CoAs (C12–C18) loaded in the syringe. To minimize the effect of buffer mismatch, the stock concentration of acyl-CoAs was prepared using ITC buffer (50 mM Hepes, 50 mM NaCl, and pH 7.5), and the pH was adjusted to within 0.05 units. In addition, MftR was buffer exchanged into ITC buffer using a PD-10 column (GE Life Sciences). The volume of the titrant added at each injection into the sample cell was 2.22 μl. The time interval between the successive injections was 180 s. The temperature of the cell was kept at 25 °C. The data obtained were fit by independent one-site model using NanoAnalyze Data Analysis, version 3.8.0, that was provided with the instrument.

Chain of MftR (WT) (A0QSB5 entry or part of it): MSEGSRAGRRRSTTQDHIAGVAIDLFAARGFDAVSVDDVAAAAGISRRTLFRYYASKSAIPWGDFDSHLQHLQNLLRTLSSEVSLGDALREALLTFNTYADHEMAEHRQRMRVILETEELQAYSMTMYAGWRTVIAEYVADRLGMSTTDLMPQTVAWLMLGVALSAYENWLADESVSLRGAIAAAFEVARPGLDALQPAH

In the case of `CC(=O)CC(=O)SCCNC(=O)CCNC(=O)[C@H](O)C(C)(C)COP(=O)(O)OP(=O)(O)OC[C@H]1O[C@@H](n2cnc3c(N)ncnc32)[C@H](O)[C@@H]1OP(=O)(O)O` [acetoacetyl-CoA], the “disruption of the MftR–Omft complex (DNA release)” value (“disruption” for short) (MftR–Omft complex) is reported as “did not observe DNA release”.
`CCCCCCCC/C=C\CCCCCCCC(=O)O` [OA, oleic acid] was tested, and the “fluorescence intensity of colonies” value [1] was “starkly increased”, the “fluorescence intensity in OA titration series” value ([2]; 0.05% w/v OA with 0.05% w/v glucose, within 40 h) was “highest fluorescence intensity” and the “fluorescence intensity compared with the control” value ([2]; 0.1% OA only, cultures at nearly the same absorbance) was “nearly three times”. The fluorescence intensity ([2]; OA added to the media after 12 h of incubation (glucose/OA 0.05% w/v each)) was “same effect” and the “overall production of the MftA–mCherry fusion” value ([2]; increasing OA 0.01, 0.02, 0.05, 0.1% w/v with 0.05% w/v glucose) was “little effect”.
`CCCCCCCCCCCCCCCCCC(=O)SCCNC(=O)CCNC(=O)[C@H](O)C(C)(C)COP(=O)(O)OP(=O)(O)OC[C@H]1O[C@@H](n2cnc3c(N)ncnc32)[C@H](O)[C@@H]1OP(=O)(O)O` [steroyl-CoA] was tested, and the Kd (MftR (WT)) was 2 to 4 µM.
For succinyl-CoA, the “disruption” value (MftR–Omft complex) was “did not observe DNA release”.
For `CC(C)CCC[C@@H](C)[C@H]1CC[C@H]2[C@@H]3CC=C4C[C@@H](O)CC[C@]4(C)[C@H]3CC[C@]12C` [cholesterol], the “disruption” value (MftR–Omft complex) was “did not observe DNA release”.
For `CCCCCCCCCCCCCC(=O)SCCNC(=O)CCNC(=O)[C@H](O)C(C)(C)COP(=O)(O)OP(=O)(O)OC[C@H]1O[C@@H](n2cnc3c(N)ncnc32)[C@H](O)[C@@H]1OP(=O)(O)O` [myristoyl-CoA], the “disruption” value (MftR–Omft complex) was “disrupted the MftR–Omft complex”.
With `CCCCCCCCCCCC(=O)SCCNC(=O)CCNC(=O)[C@H](O)C(C)(C)COP(=O)(O)OP(=O)(O)OC[C@H]1O[C@@H](n2cnc3c(N)ncnc32)[C@H](O)[C@@H]1OP(=O)(O)O` [lauroyl-CoA] the “decrease in binding affinity as compared with oleoyl-CoA” value (MftR (WT); ITC, WT MftR) was roughly 10 fold.
`CC(C)(COP(=O)(O)OP(=O)(O)OC[C@H]1O[C@@H](n2cnc3c(N)ncnc32)[C@H](O)[C@@H]1OP(=O)(O)O)[C@@H](O)C(=O)NCCC(=O)NCCS` [CoA] was tested, and the “disruption” value (MftR–Omft complex) was “did not disrupt the MftR–Omft complex”.
`CCCCCCCCCCCCCCCC(=O)SCCNC(=O)CCNC(=O)[C@H](O)C(C)(C)COP(=O)(O)OP(=O)(O)OC[C@H]1O[C@@H](n2cnc3c(N)ncnc32)[C@H](O)[C@@H]1OP(=O)(O)O` [palmitoyl-CoA] was tested, and the Kd (MftR (WT)) was 2 to 4 µM.
For `CCC(=O)SCCNC(=O)CCNC(=O)[C@H](O)C(C)(C)COP(=O)(O)OP(=O)(O)OC[C@H]1O[C@@H](n2cnc3c(N)ncnc32)[C@H](O)[C@@H]1OP(=O)(O)O` [propionyl-CoA], the “disruption” value (MftR–Omft complex) was “did not observe DNA release”.
